Data on ten compounds can be found in patent publication US6610309B2, “Therapeutic composition comprising an antigen or an in vivo generator of a compound comprising an amino acid sequence” (Societe d'Exploitation de Produits pour les Industries …, priority 1995, dated 2003).

SMILES strings stand for the structures. Where two headings read alike, the source gives them in different places.

One data set concerns total IgG and total IgG1. The data set can be described thus: Humoral response, comparison of calcium salts (Example 4). Particulars: 0.5 mg of calcium salt, 50 μg antigen, 100 μl s.c.; injection repeated on D28; antibodies assayed on D42. Format: in vivo, OF1 mice. The protocol:
(§1) The therapeutic compositions were injected subcutaneously.
(§2) The antibodies were assayed 42 days after the vaccination.
(§3) Injection of the therapeutic composition was repeated on D28. The antibodies were assayed on D42.

The test system of another data set is IgG2a. The data set can be described thus: Cell response, comparison of calcium salts (Example 4). Format: in vivo, OF1 mice. The following applies: 0.5 mg of calcium salt, 50 μg antigen, 100 μl s.c.; injection repeated on D28; antibodies assayed on D42. How it is done: as §1, §2, §3
Data set [1] concerns mice. Particulars: 0.5 mg of calcium salt, 50 μg antigen, 100 μl s.c.; observed during the tests of Example 4. How it is done:
as §1
Each therapeutic composition, 100 μl in volume, contained 50 μg of antigen and, except for the control, 0.5 mg of a calcium salt, such that the calcium concentration of each composition was 2.7 mg.
as §3

The next data set concerns anti-BSA antibodies. The format is in vivo, OF1 mice. Particulars: last dilution above background noise; for anti-BSA antibody/ primary response (D14) / anti-BSA antibody/ primary response (D28): 50 μg BSA in 100 μl s.c. on D0. How it is done: (§4) The examples were performed on OF1 mice whose average weight was between 18 and 20 g.
The results expressed are an average of the results obtained on 10 mice.
(§5) The therapeutic compositions comprised Sigma Grade V bovine serum albumin (BSA) as antigen.
as §1
The humoral immune response was determined by assay of the total IgG and of the total IgG1, according to the ELISA method.
The antibody levels mentioned in the examples correspond to the last dilution above the background noise.
Therapeutic compositions (or doses) of 100 μl each, comprising 50 μg of BSA, are prepared.
These therapeutic compositions were injected into the mice on D0 (i.e. the day of injection).
The level of anti-BSA antibodies was determined 14 and 28 days after the injection (primary response).
On D28, the same therapeutic composition was injected into the same mice.
The level of anti-BSA antibodies was determined on D42 and D56.

For data set [2], the system named is mice. The following applies: in vivo, sc. The protocol: as §4, §5, §1
A therapeutic composition 100 μl in volume, comprising 50 μg of antigen, was injected into various batches of mice each comprising 5 mice. The local reactions (lesions and granulomae) were evaluated on D8 and D35.

The mark [3] stands for this setting: adjuvant 3 mg/dose, 50 μg BSA s.c. on D0, repeated on D28.
[4] abbreviates: adjuvant 0.5 mg/dose, 50 μg BSA s.c. on D0, repeated on D28.
Setting [5] is: adjuvant 1 mg/dose, 50 μg BSA in 100 μl s.c. on D0, repeated on D28.
Setting [6] is: adjuvant 2 mg/dose, 50 μg BSA s.c. on D0, repeated on D28.

For the compound `O=C([O-])[O-].[Ca+2]` [CaCO3], in the data set with total IgG and total IgG1, the Humoral response is on record as 32,000. In addition, in the data set on IgG2a, the Cell response is 4000.

As for `[Ca+2].[Cl-].[Cl-]` [CaCl2], the lesions induced result in the data set with mice [1] is given as “very large lesions”. The Humoral response in the data set on total IgG and total IgG1 is listed as 64,000. For the same compound, the Cell response in the data set on IgG2a is 24,000.

As for `O=P([O-])([O-])O.[Ca+2]` [CaHPO4], in the data set on total IgG and total IgG1, the Humoral response is given as 64,000. Besides, in the data set with IgG2a, the Cell response is 10,000.

In the case of `O=C([O-])[C@H](O)[C@@H](O)[C@H](O)[C@H](O)CO.O=C([O-])[C@H](O)[C@@H](O)[C@H](O)[C@H](O)CO.[Ca+2]` [GluCa], in the data set on anti-BSA antibodies (adjuvant 3 mg/dose), the “anti-BSA antibody/ primary response (D14)” value was 116,000 and the “anti-BSA antibody/ primary response (D28)” value was 8000. Moreover, in the data set with anti-BSA antibodies (setting [3]), the “anti-BSA antibody/ primary response (D42)” value is 128,000 and the “anti-BSA antibody/ primary response (D56)” value is on record as 96,000. Further, in the data set with total IgG and total IgG1, the Humoral response is recorded as 128,000. Further, in the data set with mice [2], the “local reactions (D8), Mouse No. 1” value is “−”; the “local reactions (D8), Mouse No. 2” value was “−”; the “local reactions (D8), Mouse No. 3” value is “−”; the “local reactions (D8), Mouse No. 4” value is listed as “−”. Further, in the data set on mice [2], the “local reactions (D8), Mouse No. 5” value is “−”; the “local reactions (D35), Mouse No. 1” value is “−”; the “local reactions (D35), Mouse No. 2” value is recorded as “−”; the “local reactions (D35), Mouse No. 3” value is listed as “−”. For the same compound, in the data set on mice [2], the “local reactions (D35), Mouse No. 4” value was “−” and the “local reactions (D35), Mouse No. 5” value was “−”. Moreover, the Cell response in the data set with IgG2a is recorded as 32,000.

As to `O=C([O-])[C@H](O)[C@@H](O)[C@H](O)[C@H](O)CO.[K+]` [GluK], in the data set on mice [2], the “local reactions (D8), Mouse No. 1” value is listed as “−”; the “local reactions (D8), Mouse No. 2” value is on record as “−”; the “local reactions (D8), Mouse No. 3” value was “−”; the “local reactions (D8), Mouse No. 4” value is recorded as “−”. For the same compound, in the data set on mice [2], the “local reactions (D8), Mouse No. 5” value is “−”; the “local reactions (D35), Mouse No. 1” value is recorded as “−”; the “local reactions (D35), Mouse No. 2” value is “−”; the “local reactions (D35), Mouse No. 3” value is reported as “−”. For the same compound, in the data set on mice [2], the “local reactions (D35), Mouse No. 4” value is “−” and the “local reactions (D35), Mouse No. 5” value is listed as “−”.

Consider `O=C([O-])[C@H](O)[C@@H](O)[C@H](O)[C@H](O)CO.O=C([O-])[C@H](O)[C@@H](O)[C@H](O)[C@H](O)CO.[Zn+2]` [GluZn], for which, in the data set on anti-BSA antibodies (adjuvant 0.5 mg/dose), the “anti-BSA antibody/ primary response (D14)” value is on record as 16,000 and the “anti-BSA antibody/ primary response (D28)” value is 6000. Besides, in the data set on anti-BSA antibodies (setting [4]), the “anti-BSA antibody/ primary response (D42)” value is 96,000 and the “anti-BSA antibody/ primary response (D56)” value was 96,000.

On to `O=C([O-])C(O)C(O)C(O)C(O)C(O)CO.O=C([O-])C(O)C(O)C(O)C(O)C(O)CO.[Zn+2]` (centres unmarked) [GluhpZn], for which, in the data set on anti-BSA antibodies (setting [5]), the “anti-BSA antibody/ primary response (D42)” value is 64,000 and the “anti-BSA antibody/ primary response (D56)” value is 64,000. Further, the “anti-BSA antibody/ primary response (D28)” value in the data set with anti-BSA antibodies (adjuvant 1 mg/dose) was determined as 6000. The “anti-BSA antibody/ primary response (D14)” value with anti-BSA antibodies (adjuvant 1 mg/dose, average of 10 mice) was found to be 8000.

On to `O=P([O-])([O-])OCC(O)CO.[Ca+2]` (centres unmarked) [GlyCa], for which, in the data set on anti-BSA antibodies (adjuvant 2 mg/dose), the “anti-BSA antibody/ primary response (D14)” value was determined as 4000 and the “anti-BSA antibody/ primary response (D28)” value stood at 2000. Further, in the data set with anti-BSA antibodies (setting [6]), the “anti-BSA antibody/ primary response (D42)” value was 64,000 and the “anti-BSA antibody/ primary response (D56)” value is on record as 64,000.

Take `O=P([O-])([O-])OCC(O)CO.[Mn+2]` (centres unmarked) [GlyMn]: in the data set on mice [2], the “local reactions (D8), Mouse No. 2” value was “+”; the “local reactions (D8), Mouse No. 3” value is reported as “++”; the “local reactions (D8), Mouse No. 4” value is recorded as “+”; the “local reactions (D8), Mouse No. 5” value was “−”. Also, in the data set with mice [2], the “local reactions (D35), Mouse No. 1” value is given as “−”; the “local reactions (D35), Mouse No. 2” value is “+”; the “local reactions (D35), Mouse No. 3” value is on record as “+”; the “local reactions (D35), Mouse No. 4” value is listed as “+”. Further, in the data set with mice [2], the “local reactions (D35), Mouse No. 5” value is “+”.

As for `[Cl][Mn][Cl]` [MnCl^2+, reference compound], in the data set with mice [2], the “local reactions (D8), Mouse No. 1” value was “+++” and the “local reactions (D35), Mouse No. 1” value is “+++”.
